In publication doi:10.1101/866475v1, “α1A-adrenoceptor inverse agonists and agonists modulate receptor signalling through a conformational selection mechanism” (biorxiv, 2019):

Columns and labels:
WT α1A-AR = biological target: T1, WT α1A-AR (Homo sapiens, UniProt P35348); type: cell-based; settings: inverse agonist; 100 nM
T1 construct: gene ADRA1A; wild type, pcDNA3.1, expressed in COS-7 cells
T1 sequence (P35348 1-466): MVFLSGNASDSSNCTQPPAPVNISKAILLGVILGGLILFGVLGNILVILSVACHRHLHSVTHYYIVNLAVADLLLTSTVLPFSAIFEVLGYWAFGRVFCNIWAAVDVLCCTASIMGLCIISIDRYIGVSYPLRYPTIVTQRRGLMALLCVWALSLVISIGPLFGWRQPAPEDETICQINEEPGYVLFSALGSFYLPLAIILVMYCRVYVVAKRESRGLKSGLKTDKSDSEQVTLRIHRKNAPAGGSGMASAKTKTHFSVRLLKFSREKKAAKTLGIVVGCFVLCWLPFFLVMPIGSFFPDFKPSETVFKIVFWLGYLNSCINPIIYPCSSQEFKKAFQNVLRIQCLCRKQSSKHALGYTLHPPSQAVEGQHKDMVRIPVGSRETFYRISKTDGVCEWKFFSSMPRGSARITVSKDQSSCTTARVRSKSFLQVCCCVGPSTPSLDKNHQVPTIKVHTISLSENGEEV

[1] = biological target: T2, α1A-AR-A4 (and its variants α1A-AR-A4 (L312F), α1A-AR-A4-active) (Homo sapiens, UniProt P35348, C14S/T15I/L36I/I65V/N67Y/L80M/F86Y/G127A/G143A/W151F/E171V/F312L/N322K/P327L/S329Y); test: QAPB competition binding, purified immobilised receptor (KingFisher); settings: 10 nM QAPB, 20 mM HEPES pH 7.5, 100 mM NaCl, 0.02% DDM, 22 °C, 2 h
T2 construct: gene ADRA1A; thermostabilised, C-terminus truncated at Ser351 plus A and His10
T2 sequence (P35348 2-351 C14S/T15I/L36I/I65V/N67Y/L80M/F86Y/G127A/G143A/W151F/E171V/F312L/N322K/P327L/S329Y): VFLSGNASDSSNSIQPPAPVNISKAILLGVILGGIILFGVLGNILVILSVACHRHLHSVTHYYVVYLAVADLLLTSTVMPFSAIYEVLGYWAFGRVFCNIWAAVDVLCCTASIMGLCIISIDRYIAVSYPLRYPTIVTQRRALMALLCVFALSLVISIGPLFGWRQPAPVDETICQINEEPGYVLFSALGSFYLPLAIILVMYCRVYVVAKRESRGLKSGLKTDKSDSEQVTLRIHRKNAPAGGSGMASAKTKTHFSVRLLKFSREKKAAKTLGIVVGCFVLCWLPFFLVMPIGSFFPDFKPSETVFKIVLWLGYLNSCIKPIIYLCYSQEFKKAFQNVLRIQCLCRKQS

SMILES | NanoBiT Gq split-luciferase assay, COS-7 (WT α1A-AR) | Ki [1]
COc1cc2nc(N3CCN(C(=O)c4ccco4)CC3)nc(N)c2cc1OC [Prazosin] | inverse agonism of prazosin, WB-4101, phentolamine and silodosin at WT α1A-AR-expressing COS-7 cells | –
C[C@H](Cc1cc2c(c(C(N)=O)c1)N(CCCO)CC2)NCCOc1ccccc1OCC(F)(F)F [Silodosin] | – | 8.4 ± 1.9 nM
COc1cccc(OC)c1OCCNCC1COc2ccccc2O1 (stereo not drawn) [WB-4101] | – | 7.6 ± 3.4 nM
